Measured values taken from patent US20110183978A1, “Phenylpyri(mi)dinylazoles” (Bayer CropScience AG, priority 2009, published 2011).
Like-named read-outs stand apart in the source and are kept apart here.

Experiments:
Alternaria solani = experiment: Example M: in vivo test on Alternaria solani (leaf blotch disease/tomato/protective); conditions: 168 h, tomato, protective, 500 ppm active substance, assessed 7 days after inoculation, read-out: % Wirkungsgrad (activity level)
How it was run: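 Protective test: young tomato plants sprayed with active substance (in DMF with alkylaryl polyglycol ether emulsifier, diluted in water) at the stated dosage, then inoculated with Alternaria solani. Disease assessed 7 days after inoculation.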

Botrytis cinerea = experiment: Example P: in vivo test on Botrytis cinerea (gray mould on bean/protective); conditions: 48 h, bean, protective, 250 ppm active substance, assessed 2 days after inoculation, read-out: % Wirkungsgrad (activity level)
Method: Emulsifier: 1 part by weight alkylaryl polyglycol ethers For the preparation of a suitable active substance preparation, 1 part by weight of active substance is mixed with the stated quantities of solvent and emulsifier and the concentrate is diluted to the desired concentration with water. For the testing for protective activity, young plants are sprayed with the active substance preparation at the stated application dosage. After drying of the spray coating, 2 small pieces of agar with Botrytis cinerea growing on them are laid on every leaf. […] 2 days after the inoculation, the size of the infection blotches on the leaves is assessed.

Sphaerotheca fuliginea = experiment: Example L: in vivo test on Sphaerotheca fuliginea (powdery mildew on cucumber/protective); conditions: Podosphaera fuliginea, 168 h, cucumber, protective, assessment 7 days after inoculation, read-out: % Wirkungsgrad
How it was run: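 Young cucumber plants sprayed at stated dosage with compound in DMF/alkylaryl polyglycol ether emulsifier diluted in water; inoculated with S. fuliginea spores one day later. Kept in greenhouse at 70% relative humidity, 23° C; protective activity assessed 7 days after inoculation.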

Venturia inaequalis = experiment: Example O: in vivo test on Venturia inaequalis (apple scab/protective); conditions: 240 h, protective, assessment 10 days after inoculation, read-out: % Wirkungsgrad
Method: Emulsifier: 1 part by weight alkylaryl polyglycol ethers For the preparation of a suitable active substance preparation, 1 part by weight of active substance is mixed with the stated quantities of solvent and emulsifier and the concentrate is diluted to the desired concentration with water. For the testing for protective activity, young plants are sprayed with the active substance preparation at the stated application dosage. […] 10 days after the inoculation, the assessment takes place.

Fusarium graminearum = experiment: microbe, parasite or virus in culture; assay type: cell-based
Fusarium proliferatum = experiment: Example I: production of fumonisin FB1 by Fusarium proliferatum (microtitre plates); assay type: cell-based; conditions: 120 h
[1] = 72 h, read-out: % Inhibition des Pilzwachstums bei 50 μM
[2] = 168 h, read-out: % Inhibition der DON/AcDON produktion bei 50 μM
[3] = Fusarium proliferatum growth, OD 620, 5 days, read-out: % Inhibition des Pilzwachstums bei 50 μM
[4] = Fusarium proliferatum, 5 days at 20° C., HPLC-MS/MS, read-out: % Inhibition der FB1 produktion bei 50 μM
[5] = LogPA (logP of the stated pure compound or, in a mixture, of the main isomer, 1-substituted 3-aryl-1H-pyrazole)

Compound	pest or weed control at 500 ppm (Alternaria solani) [%]	chromatographic logP (physchem; LogPA)	pest or weed control at 250 ppm (Botrytis cinerea) [%]	pest or weed control at 500 ppm (Sphaerotheca fuliginea) [%]	pest or weed control at 100 ppm (Venturia inaequalis) [%]	inhibition at 50 µM (Fusarium graminearum; [1]) [%]	inhibition at 50 µM (Fusarium graminearum; [2]) [%]	inhibition at 50 µM (Fusarium proliferatum; [3]) [%]	inhibition at 50 µM (Fusarium proliferatum; [4]) [%]	chromatographic logP (physchem; [5])
CC(C)(O)C(=O)Nc1cc(-c2cn(CC(F)F)nc2-c2ccc(F)cc2)ccn1 [Compound 243]	100	2.18	75	95	98	–	–	–	–	–
CCNC(=O)Nc1cc(-c2cn(C(C)C)nc2-c2ccc(F)cc2)ccn1 [Compound 211]	70	2.02	100	93	92	16	99	–	–	–
CCC(=O)Nc1cc(-c2cn(Cc3ccccc3F)nc2-c2ccc(F)cc2)ccn1 [Compound 213]	90	2.69	91	74	–	0	100	56	100	–
CC(C)C(=O)Nc1cc(-c2cn(CC3CC3(Cl)Cl)nc2-c2ccc(F)cc2)ccn1 (stereo not shown) [Compound 254]	94	3.17	–	92	73	16	99	–	–	–
CCOCCn1cc(-c2ccncc2)c(-c2ccc(F)cc2)n1 [Compound 179]	100	1.25	100	74	100	–	–	–	–	–
N#CCn1cc(-c2ccncc2)c(-c2ccc(F)cc2)n1 [Compound 180]	–	0.89	93	–	96	–	–	–	–	–
CC(C)Cn1cc(-c2ccnc(NC(=O)C(C)C)n2)c(-c2ccc(F)cc2)n1 [Compound 189]	95	2.92	93	–	84	–	–	0	90	–
CCOC(=O)Nc1cc(-c2cn(C(C)CC)nc2-c2ccc(F)cc2)ccn1 (stereo not shown) [Compound 268]	80	3.08	100	100	98	32	90	–	–	–
COCCOCC(=O)Nc1cc(-c2cn(C(C)C)nc2-c2ccc(F)cc2)ccn1 [Compound 208]	80	2.62	100	100	78	101	100	–	–	–
CC(C)n1cc(-c2ccnc(NC(=O)C(O)CO)c2)c(-c2ccc(F)cc2)n1 (stereo not shown) [Compound 210]	80	1.76	98	100	78	85	100	–	–	–
CC(C)On1cc(-c2ccnc(NC(=O)C3CC3)c2)c(-c2ccc(F)cc2)n1 [Compound 271]	89	2.73	93	79	81	71	99	–	–	–
CC(C)n1cc(-c2ccnc(NC(=O)c3ccccc3)c2)c(-c2ccc(F)cc2)n1 [Compound 205]	95	3.2	100	100	91	–	–	–	–	–
CC(C)Cn1cc(-c2ccnc(NC(=O)C3CC3)c2)c(-c2ccc(F)cc2)n1 [Compound 165]	95	–	–	86	–	64	100	90	100	2.6
COCC(=O)Nc1cc(-c2cn(CC(C)C)nc2-c2ccc(F)cc2)ccn1 [Compound 166]	95	2.96	–	97	–	84	100	98	100	–
CCC(C)n1cc(-c2ccnc(NC(=O)COC)c2)c(-c2ccc(F)cc2)n1 (stereo not shown) [Compound 162]	94	–	100	99	96	99	99	–	–	2.95
CC(C)n1cc(-c2ccnc(NC(=O)c3cccs3)c2)c(-c2ccc(F)cc2)n1 [Compound 206]	90	3.14	100	94	83	75	99	–	–	–
CC(C)n1cc(-c2ccnc(NC(=O)C(C)(C)O)c2)c(-c2ccc(F)cc2)n1 [Compound 209]	95	2.42	100	100	89	–	–	–	–	–
CC(=O)Nc1cc(-c2cn(CC(F)F)nc2-c2ccc(F)cc2)ccn1 [Compound 242]	88	1.74	99	97	89	–	–	–	–	–
CC(C)On1cc(-c2ccnc(NC(=O)C(C)C)c2)c(-c2ccc(F)cc2)n1 [Compound 272]	94	3.01	100	94	89	33	99	–	–	–
COCCn1cc(-c2ccnc(NC(=O)COC)c2)c(-c2ccc(F)cc2)n1 [Compound 163]	93	–	–	93	–	100	100	72	100	2.05
CCC(=O)Nc1cc(-c2cn(CC3CC3(Cl)Cl)nc2-c2ccc(F)cc2)ccn1 (stereo not shown) [Compound 249]	94	2.8	100	92	96	–	–	–	–	–
